In the supplement of paper PMC10307832:

Experiments:
Test in all cases: relative viability (nuclei count vs DMSO), 5 days (fraction); higher = more cells survive
HARA = system: HARA
How it was run: (§1)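 Lung cancer cell lines were pin-tool dosed in 1536-well plates on the day after seeding, with either a lone drug or a fixed anchor-drug dose plus five library-drug doses (not always all listed) in √10 steps. Nuclei were counted on 4× images after 5 days. Relative viability is the ratio of treated-well to vehicle-well nuclei counts, with each value a median of duplicate plates.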

PC-14 = system: PC-14
How it was run: as §1

NCI-H1993 = system: NCI-H1993
How it was run: as §1

NCI-H1915 = system: NCI-H1915
How it was run: as §1

NCI-H2347 = system: NCI-H2347
How it was run: as §1

UMC-11 = system: UMC-11
How it was run: as §1

LU99A = system: LU99A
How it was run: as §1

NCI-H358 = system: NCI-H358
How it was run: as §1

NCI-H650 = system: NCI-H650
How it was run: as §1

NCI-H2126 = system: NCI-H2126
How it was run: as §1

NCI-H1355 = system: NCI-H1355
How it was run: as §1

NCI-H838 = system: NCI-H838
How it was run: as §1

NCI-H1651 = system: NCI-H1651
How it was run: as §1

EPLC-272H = system: EPLC-272H
How it was run: as §1

COR-L23 = system: COR-L23
How it was run: as §1

ABC-1 = system: ABC-1
How it was run: as §1

NCI-H2023 = system: NCI-H2023
How it was run: as §1

HOP-62 = system: HOP-62
How it was run: as §1

SW 1573 = system: SW 1573
How it was run: as §1

LC-2-ad = system: LC-2-ad
How it was run: as §1

HCC-44 = system: HCC-44
How it was run: as §1

NCI-H2085 = system: NCI-H2085
How it was run: as §1

HCC-15 = system: HCC-15
How it was run: as §1

Question: With O=c1cc(-c2cccc3c2Sc2ccccc2S3)oc(N2CCOCC2)c1 + COc1cccc2cc(-c3nc([C@H]4CC[C@H](C(=O)O)CC4)n4ncnc(N)c34)[nH]c12 [OSI-027] (partner 0.5 µM) as the molecule, how does the relative viability (HARA; first compound 0.08 µM) read?
Answer: 0.458

Question: And the relative viability (HARA; first compound 0.253 µM)?
Answer: 0.624

Question: What about the relative viability (HARA; first compound 0.8 µM) of the same molecule?
Answer: 0.566

Question: What about the relative viability (HARA; first compound 2.53 µM) of the same molecule?
Answer: 0.424

Question: What about the relative viability (HARA; first compound 8 µM) of the same molecule?
Answer: 0.481

Question: And the relative viability (PC-14; first compound 0.08 µM)?
Answer: 0.884

Question: And the relative viability (PC-14; first compound 0.253 µM)?
Answer: 1.07

Question: And the relative viability (PC-14; first compound 0.8 µM)?
Answer: 0.714

Question: What about the relative viability (PC-14; first compound 2.53 µM) of the same molecule?
Answer: 0.772

Question: What about the relative viability (PC-14; first compound 8 µM) of the same molecule?
Answer: 1.02

Question: What about the relative viability (NCI-H1993; first compound 0.08 µM) of the same molecule?
Answer: 0.539

Question: What about the relative viability (NCI-H1993; first compound 0.253 µM) of the same molecule?
Answer: 0.543

Question: What about the relative viability (NCI-H1993; first compound 0.8 µM) of the same molecule?
Answer: 0.548

Question: And the relative viability (NCI-H1993; first compound 2.53 µM)?
Answer: 0.562

Question: And the relative viability (NCI-H1993; first compound 8 µM)?
Answer: 0.637

Question: What about the relative viability (NCI-H1915; first compound 0.08 µM) of the same molecule?
Answer: 0.608

Question: And the relative viability (NCI-H1915; first compound 0.253 µM)?
Answer: 0.677

Question: What about the relative viability (NCI-H1915; first compound 0.8 µM) of the same molecule?
Answer: 0.699

Question: And the relative viability (NCI-H1915; first compound 2.53 µM)?
Answer: 0.575

Question: What about the relative viability (NCI-H1915; first compound 8 µM) of the same molecule?
Answer: 0.678

Question: What about the relative viability (NCI-H2347; first compound 0.08 µM) of the same molecule?
Answer: 0.421

Question: What about the relative viability (NCI-H2347; first compound 0.253 µM) of the same molecule?
Answer: 0.454

Question: What about the relative viability (NCI-H2347; first compound 0.8 µM) of the same molecule?
Answer: 0.297

Question: What about the relative viability (NCI-H2347; first compound 2.53 µM) of the same molecule?
Answer: 0.431

Question: What about the relative viability (NCI-H2347; first compound 8 µM) of the same molecule?
Answer: 0.297

Question: What about the relative viability (UMC-11; first compound 0.08 µM) of the same molecule?
Answer: 0.546

Question: And the relative viability (UMC-11; first compound 0.253 µM)?
Answer: 0.562

Question: And the relative viability (UMC-11; first compound 0.8 µM)?
Answer: 0.457

Question: What about the relative viability (UMC-11; first compound 2.53 µM) of the same molecule?
Answer: 0.429

Question: What about the relative viability (UMC-11; first compound 8 µM) of the same molecule?
Answer: 0.514

Question: What about the relative viability (LU99A; first compound 0.08 µM) of the same molecule?
Answer: 0.282

Question: And the relative viability (LU99A; first compound 0.253 µM)?
Answer: 0.285

Question: And the relative viability (LU99A; first compound 0.8 µM)?
Answer: 0.308

Question: And the relative viability (LU99A; first compound 2.53 µM)?
Answer: 0.335

Question: And the relative viability (LU99A; first compound 8 µM)?
Answer: 0.303

Question: And the relative viability (NCI-H358; first compound 0.08 µM)?
Answer: 0.836

Question: What about the relative viability (NCI-H358; first compound 0.253 µM) of the same molecule?
Answer: 0.999

Question: What about the relative viability (NCI-H358; first compound 0.8 µM) of the same molecule?
Answer: 0.815

Question: What about the relative viability (NCI-H358; first compound 2.53 µM) of the same molecule?
Answer: 0.807

Question: What about the relative viability (NCI-H358; first compound 8 µM) of the same molecule?
Answer: 0.869

Question: And the relative viability (NCI-H650; first compound 0.08 µM)?
Answer: 0.469

Question: What about the relative viability (NCI-H650; first compound 0.253 µM) of the same molecule?
Answer: 0.548

Question: What about the relative viability (NCI-H650; first compound 0.8 µM) of the same molecule?
Answer: 0.508

Question: What about the relative viability (NCI-H650; first compound 8 µM) of the same molecule?
Answer: 0.562

Question: What about the relative viability (NCI-H2126; first compound 0.08 µM) of the same molecule?
Answer: 0.672

Question: And the relative viability (NCI-H2126; first compound 0.253 µM)?
Answer: 0.813

Question: What about the relative viability (NCI-H2126; first compound 0.8 µM) of the same molecule?
Answer: 0.581

Question: And the relative viability (NCI-H2126; first compound 2.53 µM)?
Answer: 0.535

Question: And the relative viability (NCI-H2126; first compound 8 µM)?
Answer: 0.828

Question: And the relative viability (NCI-H1355; first compound 0.08 µM)?
Answer: 0.402

Question: And the relative viability (NCI-H1355; first compound 0.253 µM)?
Answer: 0.376

Question: And the relative viability (NCI-H1355; first compound 0.8 µM)?
Answer: 0.335

Question: What about the relative viability (NCI-H1355; first compound 2.53 µM) of the same molecule?
Answer: 0.338

Question: And the relative viability (NCI-H1355; first compound 8 µM)?
Answer: 0.33

Question: What about the relative viability (NCI-H838; first compound 0.08 µM) of the same molecule?
Answer: 0.344

Question: What about the relative viability (NCI-H838; first compound 0.253 µM) of the same molecule?
Answer: 0.417

Question: What about the relative viability (NCI-H838; first compound 0.8 µM) of the same molecule?
Answer: 0.312

Question: And the relative viability (NCI-H838; first compound 2.53 µM)?
Answer: 0.339

Question: And the relative viability (NCI-H838; first compound 8 µM)?
Answer: 0.41

Question: And the relative viability (NCI-H1651; first compound 0.08 µM)?
Answer: 0.625

Question: What about the relative viability (NCI-H1651; first compound 0.253 µM) of the same molecule?
Answer: 0.767

Question: What about the relative viability (NCI-H1651; first compound 0.8 µM) of the same molecule?
Answer: 0.711

Question: What about the relative viability (NCI-H1651; first compound 2.53 µM) of the same molecule?
Answer: 0.6

Question: What about the relative viability (NCI-H1651; first compound 8 µM) of the same molecule?
Answer: 0.702

Question: And the relative viability (EPLC-272H; first compound 0.08 µM)?
Answer: 0.254

Question: And the relative viability (EPLC-272H; first compound 0.253 µM)?
Answer: 0.279

Question: What about the relative viability (EPLC-272H; first compound 0.8 µM) of the same molecule?
Answer: 0.254

Question: And the relative viability (EPLC-272H; first compound 2.53 µM)?
Answer: 0.251

Question: What about the relative viability (EPLC-272H; first compound 8 µM) of the same molecule?
Answer: 0.278

Question: And the relative viability (COR-L23; first compound 0.08 µM)?
Answer: 0.8

Question: What about the relative viability (COR-L23; first compound 0.253 µM) of the same molecule?
Answer: 1.21

Question: What about the relative viability (COR-L23; first compound 0.8 µM) of the same molecule?
Answer: 0.892

Question: And the relative viability (COR-L23; first compound 2.53 µM)?
Answer: 0.801

Question: What about the relative viability (COR-L23; first compound 8 µM) of the same molecule?
Answer: 1

Question: What about the relative viability (ABC-1; first compound 0.08 µM) of the same molecule?
Answer: 0.501

Question: And the relative viability (ABC-1; first compound 0.253 µM)?
Answer: 0.478

Question: What about the relative viability (ABC-1; first compound 0.8 µM) of the same molecule?
Answer: 0.609

Question: And the relative viability (ABC-1; first compound 2.53 µM)?
Answer: 0.452

Question: What about the relative viability (ABC-1; first compound 8 µM) of the same molecule?
Answer: 0.445

Question: What about the relative viability (NCI-H2023; first compound 0.08 µM) of the same molecule?
Answer: 0.353

Question: What about the relative viability (NCI-H2023; first compound 0.253 µM) of the same molecule?
Answer: 0.379

Question: What about the relative viability (NCI-H2023; first compound 0.8 µM) of the same molecule?
Answer: 0.396

Question: And the relative viability (NCI-H2023; first compound 2.53 µM)?
Answer: 0.315

Question: And the relative viability (NCI-H2023; first compound 8 µM)?
Answer: 0.256

Question: What about the relative viability (HOP-62; first compound 0.08 µM) of the same molecule?
Answer: 0.888

Question: And the relative viability (HOP-62; first compound 0.253 µM)?
Answer: 1.17

Question: And the relative viability (HOP-62; first compound 0.8 µM)?
Answer: 0.913

Question: What about the relative viability (HOP-62; first compound 2.53 µM) of the same molecule?
Answer: 0.745

Question: And the relative viability (HOP-62; first compound 8 µM)?
Answer: 1.07

Question: And the relative viability (SW 1573; first compound 0.08 µM)?
Answer: 0.514

Question: What about the relative viability (SW 1573; first compound 0.253 µM) of the same molecule?
Answer: 0.797

Question: What about the relative viability (SW 1573; first compound 0.8 µM) of the same molecule?
Answer: 0.703

Question: And the relative viability (SW 1573; first compound 2.53 µM)?
Answer: 0.613

Question: What about the relative viability (SW 1573; first compound 8 µM) of the same molecule?
Answer: 0.728

Question: What about the relative viability (LC-2-ad; first compound 0.08 µM) of the same molecule?
Answer: 0.814

Question: And the relative viability (LC-2-ad; first compound 0.253 µM)?
Answer: 0.934

Question: What about the relative viability (LC-2-ad; first compound 0.8 µM) of the same molecule?
Answer: 0.792

Question: And the relative viability (LC-2-ad; first compound 2.53 µM)?
Answer: 0.741

Question: What about the relative viability (LC-2-ad; first compound 8 µM) of the same molecule?
Answer: 0.727

Question: What about the relative viability (HCC-44; first compound 0.08 µM) of the same molecule?
Answer: 0.419

Question: What about the relative viability (HCC-44; first compound 0.253 µM) of the same molecule?
Answer: 0.561

Question: And the relative viability (HCC-44; first compound 2.53 µM)?
Answer: 0.343

Question: What about the relative viability (HCC-44; first compound 8 µM) of the same molecule?
Answer: 0.499

Question: And the relative viability (NCI-H2085; first compound 0.08 µM)?
Answer: 0.635

Question: And the relative viability (NCI-H2085; first compound 0.253 µM)?
Answer: 0.88

Question: What about the relative viability (NCI-H2085; first compound 0.8 µM) of the same molecule?
Answer: 0.695

Question: What about the relative viability (NCI-H2085; first compound 2.53 µM) of the same molecule?
Answer: 0.512

Question: And the relative viability (NCI-H2085; first compound 8 µM)?
Answer: 0.525

Question: And the relative viability (HCC-15; first compound 0.08 µM)?
Answer: 0.633

Question: What about the relative viability (HCC-15; first compound 0.253 µM) of the same molecule?
Answer: 0.765

Question: What about the relative viability (HCC-15; first compound 0.8 µM) of the same molecule?
Answer: 0.733

Question: What about the relative viability (HCC-15; first compound 2.53 µM) of the same molecule?
Answer: 0.634

Question: What about the relative viability (HCC-15; first compound 8 µM) of the same molecule?
Answer: 0.611
